Tests used:
[1] = system: single neuroepithelial stem cells; experiment: single cell culture tests: single neuroepithelial stem cell to neural tubes, one ingredient removed from the culture medium or inhibitor added; assay type: cell-based; conditions: for ability of the cells to form neural tubes: ingredient removed from the proliferation culture medium; for ability of the cells to form neural tubes / cell proliferation ability: single cell culture; for cell proliferation ability: ingredient removed alone from the proliferation culture medium
Text: Additionally, a neuroepithelial stem cell can self-organize into the neural tube structures. Preferably, the operation may be performed as follows: neuroepithelial stem cells cultured for long term are digested into single cells, limitedly diluted, and cultured on wells of a 96-well plate coated with laminin, one cell per well, in the above proliferation culture medium; the liquid is changed every 2-3 days, and the single neuroepithelial stem cells self-organize into a series of neural tube structures at the 14-15th day. These neural tube structures derived from single cells express Sox2, Nestin, Pax6, ZO-1 and N-cadherin.
In addition, in the present embodiment, in order to detect which factors in the whole culture system are essential and necessary for the growth and generation of the neural tubes, it is possible to use the characteristic of the single cell forming the neural tube structure and to perform a series of single cell culture tests where one ingredient is removed from the culture medium every time to estimate which ingredients are essential for self-renewal of the neuroepithelial stem cells and formation of the neural tube.
SU5402 is an inhibitor of the FGF receptor. What the arrow points to is the miniature neural tube structure derived from the single neuroepithelial stem cell in the neuroepithelial stem cell proliferation culture medium containing SU5402.

[2] = system: single neuroepithelial stem cell; experiment: modeling neural tube defect disease by the single neuroepithelial stem cell to neural tubes assay (folic acid); assay type: cell-based; conditions: FIG. 5 (C)

Compound | ability of the cells to form neural tubes [1] | cell proliferation ability [1] | further results
Cc1c[nH]c(/C=C2\C(=O)Nc3ccccc32)c1CCC(=O)O [SU5402, reference compound] | – | – | ability to produce neural tubes ([1]; SU5402 used to inhibit FGFR signaling pathway in proliferation culture medium): all cells lose the ability to produce neural tubes
Nc1nc2ncc(CNc3ccc(C(=O)N[C@@H](CCC(=O)O)C(=O)O)cc3)nc2c(=O)[nH]1 [folic acid] | – | – | colony apoptosis versus concentration of the folic acid [2]: in negative correlation with colony apoptosis; neural tube formation versus concentration of the folic acid [2]: in positive correlation with the neural tube formation
NC(=O)c1ccc(-c2nc(-c3ccc4c(c3)OCO4)c(-c3ccccn3)[nH]2)cc1 [SB431542, reference compound] | does not affect the ability of the cells to form neural tubes | – | –
Cc1c[nH]c(-c2cnc(NCCNc3ccc(C#N)cn3)nc2-c2ccc(Cl)cc2Cl)n1.Cl [CHIR99021, reference compound] | no cell could produce the neural tube structure | – | –
Leukemia Inhibitory Factor: regulates cell proliferation and differentiation; ingredient of the proliferation culture medium | significant decrease | significant decrease | continuous production of neural tube structures ([1]; secondary clone assays): necessary for cells to continuously produce neural tube structures
bFGF: growth factor; promotes early-stage differentiation and proliferation of neural stem cells | significant decrease | significant decrease | –

Source: patent publication US20160251612A1, “CULTURE MEDIUM FOR ESTABLISHING NEUROEPITHELIAL STEM CELLS, METHOD FOR ESTABLISHING NEUROEPITHELIAL STEM CELLS, AND APPLICATIONS THEREOF” (YUNNAN KEY LAB OF PRIMATE BIOMEDICINE RESEARCH, priority 2014, published 2016)
